Consider five compounds from PMC11235165, “Delocalized quinolinium-macrocyclic peptides, an atypical chemotype for CNS penetration” (Science Advances, 2024).

Read-outs that look alike come from different tables or passages of the source.

Details of data set [1]: method as in PMID 26352530. The following applies: cited from earlier work.
For the next data set, the system named is Caco-2 cells. Also on record: method as in PMID 26352530. The following applies: cited from earlier work.
The next data set deals with Cyclophilin A (CypA) (Homo sapiens, UniProt P62937). Kind of data set: Fluorescence polarization cyclophilin A binding assay. Particulars: Table S7; focused SAR set; read-out: CypA Ki. (In general: In fluorescence polarisation assays a small probe gives low polarisation when free and higher when bound to something large.)
Cyclophilin A (CypA), sequence (P62937 whole entry): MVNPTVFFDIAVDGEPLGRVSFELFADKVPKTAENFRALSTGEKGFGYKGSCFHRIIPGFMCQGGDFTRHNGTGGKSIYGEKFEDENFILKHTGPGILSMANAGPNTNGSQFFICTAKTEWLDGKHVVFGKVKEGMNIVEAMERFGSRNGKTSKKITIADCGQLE
The conditions of data set [2]: mouse, in vivo; for AUC(0-inf) / AUC(0-t) / half-life: ip, 10 mg/kg.
Experimental: (§1) The remaining five compounds were evaluated for plasma and brain levels in a pharmacokinetic experiment in mice.
Pharmacokinetic analysis.
(Cyprotex UK) using LCMSMS.
The target in another data set is hERG (Homo sapiens, UniProt Q12809). Kind of data set: hERG inhibition. The following applies: for inhibition at 25 µM: hERG (% inhibition at 25 μM). Type of data set: biochemical. (In general: hERG is a cardiac potassium channel; its block is linked to QT prolongation.)
hERG, sequence (Q12809 whole entry): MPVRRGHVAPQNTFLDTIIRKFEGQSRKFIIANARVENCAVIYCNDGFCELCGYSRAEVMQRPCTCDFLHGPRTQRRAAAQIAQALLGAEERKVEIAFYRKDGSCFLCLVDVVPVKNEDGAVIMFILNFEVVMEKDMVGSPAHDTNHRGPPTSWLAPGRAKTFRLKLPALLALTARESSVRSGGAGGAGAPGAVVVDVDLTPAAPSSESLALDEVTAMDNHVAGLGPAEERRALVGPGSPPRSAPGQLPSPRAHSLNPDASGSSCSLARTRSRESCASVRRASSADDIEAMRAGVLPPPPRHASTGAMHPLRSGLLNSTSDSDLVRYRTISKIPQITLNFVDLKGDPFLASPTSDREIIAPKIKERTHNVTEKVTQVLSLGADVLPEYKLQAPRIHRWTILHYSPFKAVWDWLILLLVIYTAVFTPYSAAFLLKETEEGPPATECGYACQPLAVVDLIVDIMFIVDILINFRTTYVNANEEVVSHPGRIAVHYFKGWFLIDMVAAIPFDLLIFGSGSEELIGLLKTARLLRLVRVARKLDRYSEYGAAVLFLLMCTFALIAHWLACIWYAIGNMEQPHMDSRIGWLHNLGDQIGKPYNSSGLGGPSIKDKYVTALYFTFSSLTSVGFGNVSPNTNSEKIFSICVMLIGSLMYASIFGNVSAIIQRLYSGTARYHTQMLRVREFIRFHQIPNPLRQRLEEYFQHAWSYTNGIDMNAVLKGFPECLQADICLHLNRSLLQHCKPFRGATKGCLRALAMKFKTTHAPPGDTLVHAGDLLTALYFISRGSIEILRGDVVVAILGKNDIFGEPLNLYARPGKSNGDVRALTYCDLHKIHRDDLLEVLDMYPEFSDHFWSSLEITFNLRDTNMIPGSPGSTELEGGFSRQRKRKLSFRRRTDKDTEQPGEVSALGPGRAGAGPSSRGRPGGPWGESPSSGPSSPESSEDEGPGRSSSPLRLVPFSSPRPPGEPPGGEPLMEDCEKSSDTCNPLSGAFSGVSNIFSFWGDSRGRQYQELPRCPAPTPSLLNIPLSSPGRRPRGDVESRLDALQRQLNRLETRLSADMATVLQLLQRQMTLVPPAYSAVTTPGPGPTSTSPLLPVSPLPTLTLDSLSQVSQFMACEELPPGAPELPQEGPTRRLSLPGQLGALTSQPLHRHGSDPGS
A further data set is described as follows: in vivo. The following applies: ABH, mouse, ip, 10 mg/kg; for level at 24 h: Brain concentrations at 24 hours.
Data set [3] can be described thus: Hepatocyte clearance (mouse). Type of data set: in vitro ADME. The following applies: mouse hepatocytes.
A short description of data set [4]: Hepatocyte clearance (human). The data set is classed as in vitro ADME. The following applies: human hepatocytes.
The conditions of data set [5]: mouse, in vivo; for Cl_obs: ip.
Experimental: as §1
Pharmacokinetic analysis.
(Cyprotex UK) using LCMSMS.
Data set [6] in a line: Brain tissue binding (fraction unbound). Type of data set: in vitro ADME. The following applies: read-out: Brain tissue (fu). The source says:
Table 1. Key data for lead optimization. SD, standard deviation of the mean; SE, standard error of the mean; fu, fraction unbound; ND, not determined. | column: Brain tissue (fu)

In a further data set the target is CypD (Homo sapiens, UniProt P30405). Kind of data set: Fluorescence polarization cyclophilin D binding assay. Particulars: Table S7; focused SAR set; read-out: CypD Ki.
CypD, sequence (P30405 30-207): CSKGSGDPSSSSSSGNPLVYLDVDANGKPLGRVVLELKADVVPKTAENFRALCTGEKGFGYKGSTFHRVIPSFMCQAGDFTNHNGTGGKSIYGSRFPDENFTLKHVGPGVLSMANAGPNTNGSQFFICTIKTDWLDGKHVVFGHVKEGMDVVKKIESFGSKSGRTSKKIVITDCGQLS
Data set [7] is described as follows: Plasma protein binding (fraction unbound). Type of data set: in vitro ADME. The following applies: read-out: Plasma protein (fu).
Data set [8] has as its system CRFK and CRFK-TRIMCypA cells. Kind of data set: MTT viability of CRFK and CRFK-TRIMCypA cells. The data set is classed as cell-based, Feline. The following applies: 48 hours, up to 20 μM.
Experimental: Assay for cellular CypA selectivity
bromide (MTT) assay (Sigma) was performed.
100 μL solubilisation solution (10 % SDS
For data set [9], the system named is mitochondrial permeability transition pore (mPTP). Kind of data set: Calcium retention capacity (CRC) assay in isolated liver mitochondria. Type of data set: biochemical, rat.
Data set [10] can be described thus: Pharmacokinetic study, plasma and brain levels by LC-MS/MS.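 Note: ABH mice, four per group, dosed intraperitoneally, plasma and brain taken at set times after euthanasia, drug levels quantified by LC-MS/MS.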
Experimental: as §1
Pharmacokinetic analysis.
(Cyprotex UK) using LCMSMS.
In a further data set the target is T1, TRIM-CypA (Homo sapiens, UniProt P62937+Q6PIZ9).
T1 construct: expressed in transfected cells; host or cells: CRFK (Crandell-Rees Feline Kidney) cells transduced with MLV EXN-TRIM-CypA vector, G418 selected
T1 sequence (P62937 2-165, one chain of several): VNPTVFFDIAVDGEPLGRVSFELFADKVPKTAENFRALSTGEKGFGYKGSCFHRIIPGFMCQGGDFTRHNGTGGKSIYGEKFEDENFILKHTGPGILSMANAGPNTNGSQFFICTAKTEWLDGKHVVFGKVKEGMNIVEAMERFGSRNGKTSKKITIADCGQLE
The data set is classed as cell-based. Particulars: CRFK-TRIMCypA cells; 0.5-20 μM; 48 hours; GFP-positive cells by flow cytometry. Background: Flow cytometry measures light scatter and fluorescence of single cells or particles in a stream.

Experimental for Cyclophilin A (CypA): (§2) This was determined using a fluorescence polarization assay ([12]).
Fluorescence Polarization assay.
(§3) Briefly, titration of a single probe concentration
measure binding affinities.
FP -probe. Enzyme, inhibitor and
(ph7.4)) supplemented with 1 mM PMSF.
Experimental for CypD: as §2
Fluorescence Polarization assay.
as §3
measure binding affinities.
Experimental for in vivo: as §1
Pharmacokinetic analysis.
(Cyprotex UK) using LCMSMS.

In the case of `COc1ccc2cc3[n+](cc2c1OC)CCc1cc2c(cc1-3)OCO2` [Berberine, berberine], the PAMPA permeability in data set [1] is 1 to 1.2 ×10⁻⁶ cm/s. For the same compound, in the data set on Caco-2 cells (AP-BL), the “Caco-2 cell line permeability AP-BL” value is 2.59 ×10⁻⁶ cm/s. In addition, the “Caco-2 cell line permeability BL-AP” value in the data set with Caco-2 cells (BL-AP) is 25.16 ×10⁻⁶ cm/s.
`CC[C@@H]1NC(=O)[C@H]([C@H](O)[C@H](C)C/C=C/CCC[n+]2ccc(N3CCOCC3)c3ccc(C(F)(F)F)cc32)N(C)C(=O)[C@H](C(C)C)N(C)C(=O)[C@H](CC(C)C)N(C)C(=O)[C@H](CC(C)C)N(C)C(=O)[C@@H](C)NC(=O)[C@H](C)NC(=O)[C@H](CC(C)C)N(C)C(=O)[C@H](C(C)C)NC(=O)[C@H](CC(C)C)N(C)C(=O)CN(C)C1=O` [JP1-138]: the Ki (commonly a measure of affinity in units of concentration, obtained from inhibition or displacement) at Cyclophilin A (CypA) stood at 42 nM. Moreover, in data set [2], the AUC (commonly concentration integrated over time) was determined as 198 µg·h/mL; the AUC(0-inf) (usually total exposure, with the tail of the curve extrapolated) was 226 µg·h/mL; the area under the curve AUC(0-t) (in general, exposure summed from dosing to a finite time, without extrapolation to infinity) was 216 µg·h/mL; the half-life (in general, how long it takes for the measured level to halve) was 5.81 h. For the same compound, on hERG (25 μM), testing at 25 µM gave an inhibition of 37.7%. Moreover, in “in vivo”, the level at time molar at 24 h amounted to 391 nM and the level at 24 h turned out to be 592 ng/mL. Besides, the hepatocyte CLint (in general, the rate of metabolic loss divided by the concentration) in [3] was 9.61 µL/min/1e6 cells. The compound also came in with a hepatocyte CLint in data set [4] of 7.62 µL/min/1e6 cells. Besides, the “Brain AUC as % of the plasma AUC” value in data set [5] is given as “about 2%”. Moreover, the Cl_obs in [5] (10 mg/kg) was 4.43 × 10^−05 (mg/kg)/(ng/ml).hour. For the same compound, the fraction unbound in data set [6] came out at 0.00084. The Ki on CypD is 64 ± 16 nM.
`CC[C@@H]1NC(=O)[C@H]([C@H](O)[C@H](C)C/C=C/CCC[n+]2ccc(N3CCOCC3)c3ccccc32)N(C)C(=O)[C@H](C(C)C)N(C)C(=O)[C@H](CC(C)C)N(C)C(=O)[C@H](CC(C)C)N(C)C(=O)[C@@H](C)NC(=O)[C@H](C)NC(=O)[C@H](CC(C)C)N(C)C(=O)[C@H](C(C)C)NC(=O)[C@H](CC(C)C)N(C)C(=O)CN(C)C1=O` [JP1-141]: the inhibition constant (Ki) at Cyclophilin A (CypA) is 29 nM. Also, in [2], the AUC(0-inf) turned out to be 105 µg·h/mL, the AUC(0-t) was 103 µg·h/mL and the half-life was 4.04 h. For the same compound, at hERG (25 μM), the “hERG (% inhibition at 25 μM)” value came out at 63.9% and the inhibition (commonly how much of the control response was suppressed) at 25 µM worked out at 65%. Besides, in “in vivo”, the level at time molar at 24 h came to 642 nM and the level at 24 h was 927 ng/mL. In addition, the hepatocyte CLint in [3] was determined as 3.59 µL/min/1e6 cells. For the same compound, the intrinsic clearance (hepatocyte CLint) in [4] stood at 3.62 µL/min/1e6 cells. In addition, in data set [5] (10 mg/kg), the “Toxicity in the pharmacokinetic experiment” value is “some toxicity” and the Cl_obs is on record as 9.57 × 10^−05 (mg/kg)/(ng/ml).hour. In [6], the fraction unbound worked out at 0.01.
With `CC[C@@H]1NC(=O)[C@H]([C@H](O)[C@H](C)C/C=C/CCC[n+]2ccc(N3CCCCC3)c3ccc(C(F)(F)F)cc32)N(C)C(=O)[C@H](C(C)C)N(C)C(=O)[C@H](CC(C)C)N(C)C(=O)[C@H](CC(C)C)N(C)C(=O)[C@@H](C)NC(=O)[C@H](C)NC(=O)[C@H](CC(C)C)N(C)C(=O)[C@H](C(C)C)NC(=O)[C@H](CC(C)C)N(C)C(=O)CN(C)C1=O` [JP1-164], the fraction unbound in data set [7] amounted to 0.69. Besides, in data set [2], the AUC(0-inf) amounted to 141 µg·h/mL, the exposure AUC(0-t) is 134 µg·h/mL and the half-life is 5.68 h. For the same compound, at hERG (25 μM), the inhibition at 25 µM was determined as 14.2%. In the data set “in vivo”, this compound showed a level at time molar at 24 h of 380 nM and a level at 24 h of 574 ng/mL. The compound further yielded a hepatocyte CLint in [3] of 5.89 µL/min/1e6 cells. This compound also returned a hepatocyte CLint in data set [4] of 22.4 µL/min/1e6 cells. Also, in [5] (10 mg/kg), the Cl_obs is recorded as 7.09 × 10^−05 (mg/kg)/(ng/ml).hour. In [6], the fraction unbound is 0.01.
As to `CC[C@@H]1NC(=O)[C@H]([C@H](O)[C@H](C)C/C=C/CCC[n+]2ccc(N(C)C)c3ccc(C(F)(F)F)cc32)N(C)C(=O)[C@H](C(C)C)N(C)C(=O)[C@H](CC(C)C)N(C)C(=O)[C@H](CC(C)C)N(C)C(=O)[C@@H](C)NC(=O)[C@H](C)NC(=O)[C@H](CC(C)C)N(C)C(=O)[C@H](C(C)C)NC(=O)[C@H](CC(C)C)N(C)C(=O)CN(C)C1=O` [JW76], in data set [8], the “Toxicity to non-restricting and restricting cells (MTT)” value is recorded as “not toxic at any concentration tested”. Also, the CRC inhibition % in data set [9] (Table S4 / Fig. S2, rat liver mitochondria, 500 nM, (Treated-NonTreated)/NonTreated)*100) was 54.7%. In addition, the “CRC % inhibition at 10 nM” value in [9] (Table S7, 10 nM) was 32.9%. The level at 1 h in data set [10] (ABH, mouse, brain, ip, Brain ng/mL, mice, 1 h) stood at 668 ng/mL; in [10] (ABH, mouse, plasma, ip, Plasma (ng/mL), mice, 1 h), 50800 ng/mL. In data set [10] (ABH, mouse, brain, ip, Brain ng/mL, mice, 4 h), this compound showed a level at 4 h of 545 ng/mL. Moreover, the “Detectability in the brain at 48 hours” value in data set [10] (longer-term pharmacokinetic study, 48 hours) is on record as “not detectable”. For the same compound, the “Brain” value in data set [10] (mice, 1 h) was 668 ng/mL. The AUC in [10] (mouse, in vivo) was 67 µg·h/mL. Further, the fraction unbound in data set [7] was 0.0039. Moreover, at hERG, the “hERG activity” value is recorded as “little hERG activity”. Moreover, on hERG (25 μM), testing at 25 µM gave an inhibition of 16.3%. Besides, the hepatocyte CLint came out at 6.81 µL/min/1e6 cells in [3] and 5.62 µL/min/1e6 cells in [4]. The “Rescue of HIV-1 infectivity of restricting (TRIM-CypA) cells” value on TRIM-CypA was “rescued infectivity poorly and only at 20 μM”.
